Data reported in ChEMBL document CHEMBL1201862, “PubChem BioAssay data set” (2004).
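In this assay, cells in 96-well plates receive the compound at five concentrations for 48 hours. Endpoints are linearly interpolated between the surrounding concentrations. At the GI50, growth is halved.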 Active and inactive are the calls of the source. Rule as the data show it: active = GI50 up to about 1.1 µM and inactive = higher.

Columns and labels:
Assay in all cases: NCI anticancer screen, dose series, 48 h
[1] = test system: ACHN
[2] = test system: M14
[3] = test system: K562
[4] = test system: MDA-N
[5] = test system: HCT-15
[6] = test system: SN12C
[7] = test system: UACC-62
[8] = test system: LOX IMVI
[9] = test system: RXF 393
[10] = test system: OVCAR-5
[11] = test system: 786-0
[12] = test system: A549
[13] = test system: HL-60
[14] = test system: KM12
[15] = test system: IGROV-1
[16] = test system: NCI-H522
[17] = test system: HOP-62
[18] = test system: COLO 205
[19] = test system: SK-OV-3
[20] = test system: MCF7

SMILES | GI50 [1] | GI50 [2] | GI50 [3] | GI50 [4] | GI50 [5] [µM] | GI50 [6] | GI50 [7] | GI50 [8] | GI50 [9] | GI50 [10] | GI50 [11] | GI50 [12] | GI50 [13] | GI50 [14] | GI50 [15] | GI50 [16] | GI50 [17] | GI50 [18] | GI50 [19] | GI50 [20]
NC(Cc1ccccc1)P(=O)(O)O (configuration not stated) | > 100 µM (inactive) | > 100 µM (inactive) | > 100 µM (inactive) | > 100 µM (inactive) | > 100 | > 100 µM (inactive) | > 100 µM (inactive) | > 100 µM (inactive) | > 100 µM (inactive) | > 100 µM (inactive) | > 100 µM (inactive) | > 100 µM (inactive) | > 100 µM (inactive) | > 100 µM (inactive) | > 100 µM (inactive) | > 100 µM (inactive) | > 100 µM (inactive) | – | – | –
COc1cc(C(c2cc3c(cc2O)OCO3)N2CCCC2)cc(OC)c1OC (configuration not stated) | 15.4 µM (inactive) | 24.5 µM (inactive) | 4.37 µM (inactive) | 13.4 µM (inactive) | 8.43 | 12.2 µM (inactive) | 15.8 µM (inactive) | 14.6 µM (inactive) | – | 25.9 µM (inactive) | 14.7 µM (inactive) | 20.4 µM (inactive) | 2.07 µM (inactive) | 18.2 µM (inactive) | 12.4 µM (inactive) | 3.35 µM (inactive) | 30.5 µM (inactive) | 11.7 µM (inactive) | 30.3 µM (inactive) | 26.9 µM (inactive)
N#CCc1nc(O)c2ccccc2n1 | > 100 µM (inactive) | > 100 µM (inactive) | – | > 100 µM (inactive) | 48 | > 100 µM (inactive) | – | 56.4 µM (inactive) | – | > 100 µM (inactive) | > 100 µM (inactive) | > 100 µM (inactive) | 28.3 µM (inactive) | > 100 µM (inactive) | > 100 µM (inactive) | – | > 100 µM (inactive) | 98.9 µM (inactive) | > 100 µM (inactive) | 28.1 µM (inactive)
COc1ccc([N+](=O)[O-])c2c(NCCCN(C)C)c(C)c(C)nc12 | > 100 µM (inactive) | > 100 µM (inactive) | 37.6 µM (inactive) | > 100 µM (inactive) | 22.4 | > 100 µM (inactive) | 81.3 µM (inactive) | > 100 µM (inactive) | – | > 100 µM (inactive) | > 100 µM (inactive) | 99.3 µM (inactive) | 42.9 µM (inactive) | > 100 µM (inactive) | 36.6 µM (inactive) | 27.9 µM (inactive) | 89.5 µM (inactive) | 26.2 µM (inactive) | > 100 µM (inactive) | 49.9 µM (inactive)
NCCCCCNOCCCN | > 100 µM (inactive) | > 100 µM (inactive) | > 100 µM (inactive) | > 100 µM (inactive) | > 100 | > 100 µM (inactive) | > 100 µM (inactive) | > 100 µM (inactive) | – | > 100 µM (inactive) | > 100 µM (inactive) | > 100 µM (inactive) | > 100 µM (inactive) | > 100 µM (inactive) | > 100 µM (inactive) | > 100 µM (inactive) | > 100 µM (inactive) | > 100 µM (inactive) | > 100 µM (inactive) | –
Cc1ccc2c(c1)nc(N)n[n+]2[O-] | > 100 µM (inactive) | > 100 µM (inactive) | > 100 µM (inactive) | > 100 µM (inactive) | > 100 | > 100 µM (inactive) | > 100 µM (inactive) | > 100 µM (inactive) | – | > 100 µM (inactive) | > 100 µM (inactive) | > 100 µM (inactive) | > 100 µM (inactive) | > 100 µM (inactive) | > 100 µM (inactive) | > 100 µM (inactive) | > 100 µM (inactive) | > 100 µM (inactive) | > 100 µM (inactive) | > 100 µM (inactive)
COc1ccccc1C1c2cc3c(cc2OC(N2CCOCC2)C1C)OCO3 (configuration not stated) | 26.2 µM (inactive) | 17.5 µM (inactive) | 7.85 µM (inactive) | 10.5 µM (inactive) | 16.7 | 17.7 µM (inactive) | 14.7 µM (inactive) | 16.7 µM (inactive) | – | 16.4 µM (inactive) | 18.9 µM (inactive) | 17.3 µM (inactive) | – | 16.4 µM (inactive) | 27.2 µM (inactive) | 12.7 µM (inactive) | 17.8 µM (inactive) | > 10 µM (inactive) | – | 23.6 µM (inactive)
O=S(=O)(Nc1nc2ccccc2nc1Nc1cccc2ccccc12)c1ccccc1 | 8 µM (inactive) | 62.4 µM (inactive) | > 100 µM (inactive) | > 100 µM (inactive) | – | > 100 µM (inactive) | 8.59 µM (inactive) | > 100 µM (inactive) | 17.5 µM (inactive) | > 100 µM (inactive) | 17 µM (inactive) | 7.35 µM (inactive) | – | 5.61 µM (inactive) | 5.9 µM (inactive) | – | 13.9 µM (inactive) | – | 19.9 µM (inactive) | > 100 µM (inactive)
O=S(=O)([C-]([I+]c1ccccc1)S(=O)(=O)C(F)(F)C(F)(F)C(F)(F)C(F)(F)F)C(F)(F)C(F)(F)C(F)(F)C(F)(F)F | 6.49 µM (inactive) | 13.6 µM (inactive) | 4.11 µM (inactive) | – | 15.2 | – | 17.9 µM (inactive) | 14.4 µM (inactive) | – | 17.2 µM (inactive) | 14.9 µM (inactive) | 18.7 µM (inactive) | 4.67 µM (inactive) | 21.5 µM (inactive) | 19.1 µM (inactive) | 2.49 µM (inactive) | 16.8 µM (inactive) | 6.64 µM (inactive) | 16.7 µM (inactive) | 6.05 µM (inactive)
O=[N+]([O-])/C(C(Cl)=C(Cl)Cl)=C(\Nc1cccc2cccnc12)SCc1ccccc1 | 23.3 µM (inactive) | 27.5 µM (inactive) | 13.4 µM (inactive) | 31.1 µM (inactive) | 19.9 | 25.3 µM (inactive) | 23.3 µM (inactive) | – | – | 30.8 µM (inactive) | 21.6 µM (inactive) | 31.3 µM (inactive) | – | 17.2 µM (inactive) | – | – | 15.8 µM (inactive) | 18.8 µM (inactive) | 15.8 µM (inactive) | 15.3 µM (inactive)
COC(O)C(=O)c1c2c(cc3c1CCC3)CCC2 (configuration not stated) | > 100 µM (inactive) | > 100 µM (inactive) | 80.9 µM (inactive) | > 100 µM (inactive) | > 100 | > 100 µM (inactive) | > 100 µM (inactive) | > 100 µM (inactive) | – | > 100 µM (inactive) | > 100 µM (inactive) | > 100 µM (inactive) | 22.6 µM (inactive) | 70.1 µM (inactive) | > 100 µM (inactive) | > 100 µM (inactive) | > 100 µM (inactive) | > 100 µM (inactive) | > 100 µM (inactive) | > 100 µM (inactive)
Cc1ccc(Nc2nc(=O)[nH]c(=O)[nH]2)cc1N | > 100 µM (inactive) | > 100 µM (inactive) | – | > 100 µM (inactive) | > 100 | > 100 µM (inactive) | > 100 µM (inactive) | > 100 µM (inactive) | – | > 100 µM (inactive) | > 100 µM (inactive) | > 100 µM (inactive) | > 100 µM (inactive) | > 100 µM (inactive) | > 100 µM (inactive) | > 100 µM (inactive) | > 100 µM (inactive) | > 100 µM (inactive) | > 100 µM (inactive) | > 100 µM (inactive)
O=C(Oc1c(I)ccccc1=O)c1ccc([N+](=O)[O-])cc1 | 24.8 µM (inactive) | 26.2 µM (inactive) | 24.2 µM (inactive) | – | 12.9 | 20.4 µM (inactive) | 22.6 µM (inactive) | 19.6 µM (inactive) | 3.08 µM (inactive) | 35.5 µM (inactive) | 26.9 µM (inactive) | 21.6 µM (inactive) | 18.2 µM (inactive) | 18.9 µM (inactive) | 14.9 µM (inactive) | 17.7 µM (inactive) | 33.3 µM (inactive) | 14.7 µM (inactive) | – | 17.2 µM (inactive)
COC(=O)N1CCc2c(nc(N(C)CCO)[nH]c2=O)C1 | > 100 µM (inactive) | > 100 µM (inactive) | > 100 µM (inactive) | – | > 100 | > 100 µM (inactive) | > 100 µM (inactive) | > 100 µM (inactive) | > 100 µM (inactive) | > 100 µM (inactive) | > 100 µM (inactive) | > 100 µM (inactive) | > 100 µM (inactive) | > 100 µM (inactive) | > 100 µM (inactive) | > 100 µM (inactive) | > 100 µM (inactive) | > 100 µM (inactive) | > 100 µM (inactive) | –
O=[N+]([O-])c1ccc2c(c1)S(=O)(=O)N1Cc3ccccc3CCN21 | > 100 µM (inactive) | > 100 µM (inactive) | > 100 µM (inactive) | – | > 100 | > 100 µM (inactive) | > 100 µM (inactive) | > 100 µM (inactive) | > 100 µM (inactive) | > 100 µM (inactive) | 97.5 µM (inactive) | > 100 µM (inactive) | > 100 µM (inactive) | > 100 µM (inactive) | > 100 µM (inactive) | > 100 µM (inactive) | > 100 µM (inactive) | > 100 µM (inactive) | – | > 100 µM (inactive)
Nc1ccccc1C(=O)CCc1c[nH]c2ccccc12 | 53.7 µM (inactive) | > 100 µM (inactive) | > 100 µM (inactive) | > 100 µM (inactive) | 93.3 | > 100 µM (inactive) | 25.1 µM (inactive) | 47.5 µM (inactive) | – | > 100 µM (inactive) | 46.2 µM (inactive) | > 100 µM (inactive) | > 100 µM (inactive) | > 100 µM (inactive) | 35.7 µM (inactive) | > 100 µM (inactive) | 32.2 µM (inactive) | – | 27 µM (inactive) | > 100 µM (inactive)
